The values that follow come from US12507703B2, “Methods, devices and compositions for preserving human milk” (The Trustees of Princeton University, priority 2023, dated 2025).

“And” between values parts separate entries of the source, which are not always exact repeats. Equal values may be shown once.

The subject of this assay is lipase. Nature of the assay: Lipase/lipolysis assay (EnzChek Lipase Substrate, quenched BODIPY-fatty acid conjugate) on stored human milk. On Lipase (RFU): test concentration or dose not given here.
For the molecule `CC1(C)[C@@H](O[C@H]2O[C@H](C(=O)[O-])[C@@H](O)[C@H](O)[C@H]2O[C@@H]2O[C@H](C(=O)[O-])[C@@H](O)[C@H](O)[C@H]2O)CC[C@]2(C)[C@H]3C(=O)C=C4[C@@H]5C[C@@](C)(C(=O)O)CC[C@]5(C)CC[C@@]4(C)[C@]3(C)CC[C@@H]12.[K+].[K+]` [Dipotassium glycyrrhizinate], the “Lipase (RFU)” value is 813.8172 RFU and 1090.475 RFU.

Turning to Tara gum, the “Lipase (RFU)” value amounted to 841.631 RFU.

(−)-Menthone: the “Lipase (RFU)” value is recorded as 1263.606 RFU.

With `OC[C@H]1O[C@@H](O[C@H]2[C@H](O)[C@@H](O)[C@H](O)O[C@@H]2CO)[C@H](O)[C@@H](O)[C@@H]1O` [D-Cellobiose], the “Lipase (RFU)” value came to 785.8282 RFU.

On to `C[C@H]1CC[C@@H](C(C)(C)O)CC2=C1CC[C@@H]2C` [Guaiol], for which the “Lipase (RFU)” value was determined as 919.8918 RFU.

Consider `CC(=O)C(=O)c1ccccc1` [1-Phenylpropane-1,2-dione], for which the “Lipase (RFU)” value was 1078.742 RFU.

Chondroitin Sulfate C: the “Hit in lipase inhibition screen (in words)” value was “significantly inhibited lipase activity” and the “Lipase (RFU)” value stood at 308.9045 RFU.

For `O=c1[nH]c2ccccc2o1` [Compound 2-Benzoxazolinone, 2-Benzoxazolinone], the “Lipase (RFU)” value is listed as 985.9488 RFU.

On to `O=C(O)C(O)C(O)C(=O)O` (racemic) [DL-Tartaric acid], for which the “Lipase (RFU)” value is 1079.017 RFU.

On to `CCCCCCCCCCC[C@@H](C[C@@H]1OC(=O)[C@H]1CCCCCC)OC(=O)[C@H](CC(C)C)NC=O` [Orlistat, reference compound], for which the “Lipase (RFU)” value came to 234.506 RFU.

Turning to `C[C@@H]1C(=O)O[C@H]2C[C@@]34[C@H]5C[C@@H](C(C)(C)C)[C@]36[C@@H](OC(=O)[C@@H]6O)O[C@@]4(C(=O)O5)[C@]21O` [Ginkgolide A], the “Lipase (RFU)” value is listed as 772.6433 RFU.

On to `COc1cc2ccc(=O)oc2c2ccoc12` [Sphondin], for which the “Lipase (RFU)” value is listed as 913.6372 RFU.

Turning to `O=c1cc(-c2ccc(O)c(O)c2)oc2c([C@@H]3O[C@H](CO)[C@@H](O)[C@H](O)[C@H]3O)c(O)cc(O)c12` [Orientin], the “Lipase (RFU)” value came to 715.9231 RFU.

With `CC(C)(C)CC(C)(C)c1ccc(O)cc1` [Compound 4-tert-Octylphenol, 4-tert-Octylphenol], the “Lipase (RFU)” value came out at 868.4892 RFU.

Consider `Cl.O=C(O)Cc1cnc[nH]1` [Imidazoleacetic acid (hydrochloride)], for which the “Lipase (RFU)” value amounted to 807.4109 RFU.

Regarding Triolein, the “Lipase (RFU)” value was determined as 728.6705 RFU.

As for `N[C@@H](CNC(=O)C(=O)O)C(=O)O` [Dencichine], the “Lipase (RFU)” value is reported as 1365.261 RFU.

Take `CC(=O)c1ccc2c(c1)C=CC(C)(C)O2` [Demethoxyencecalin]: the “Lipase (RFU)” value was found to be 1050.951 RFU.

Take `Cn1cncc1C[C@H](NC(=O)CCN)C(=O)O` [Anserine]: the “Lipase (RFU)” value was 1023.923 RFU.

Regarding `COc1cc(C=CC(=O)O)cc(OC)c1OC` [3,4,5-Trimethoxycinnamic acid], the “Lipase (RFU)” value was 1076.789 RFU.

In the case of `C[C@]12CC[C@H]3[C@@H](CC=C4C[C@@H](O)CC[C@@]43C)[C@@H]1CC[C@@H]2C(=O)CO` [21-Hydroxypregnenolone], the “Lipase (RFU)” value stood at 955.7541 RFU.

Take `CC(CC(=O)C[C@@H](C)[C@H]1CC(=O)[C@@]2(C)C3=C(C(=O)C[C@]12C)[C@@]1(C)CC[C@H](O)C(C)(C)[C@@H]1C[C@@H]3O)C(=O)O` (stereo partly drawn) [Ganoderic acid B]: the “Lipase (RFU)” value came to 879.1619 RFU.

For `O=C(CO)[C@@H](O)[C@H](O)[C@@H](O)CO` [(3S,4R,5S)-1,3,4,5,6-Pentahydroxyhexan-2-one], the “Lipase (RFU)” value is 1079.288 RFU and 1003.563 RFU.

As to Pinoresinol, the “Lipase (RFU)” value is given as 1253.681 RFU.

In the case of `COc1cc(OC)c(OC)cc1C=O` [Asaraldehyde], the “Lipase (RFU)” value turned out to be 982.6997 RFU.

`CC(C)=CCC[C@](C)(O[C@@H]1O[C@H](CO[C@@H]2O[C@H](CO)[C@@H](O)[C@H](O)[C@H]2O)[C@@H](O)[C@H](O)[C@H]1O)[C@H]1CC[C@]2(C)[C@@H]1[C@H](O)C[C@@H]1[C@@]3(C)CC[C@H](O[C@@H]4O[C@H](CO)[C@@H](O)[C@H](O)[C@H]4O[C@@H]4O[C@H](CO)[C@@H](O)[C@H](O)[C@H]4O)C(C)(C)[C@@H]3CC[C@]12C` [Ginsenoside Rb1]: the “Lipase (RFU)” value stood at 830.8489 RFU.

For `OC[C@H]1NC[C@H](O)[C@@H](O)[C@@H]1O` [Compound 1-Deoxynojirimycin], the “Lipase (RFU)” value was 1029.468 RFU.

As to `C[N+]1(C)CCC[C@H]1C(=O)[O-].Cl` [Stachydrine hydrochloride], the “Lipase (RFU)” value turned out to be 915.6673 RFU.

On to `C[C@H](CCC(=O)NCC(=O)O)[C@H]1CC[C@H]2[C@@H]3CC[C@@H]4C[C@H](O)CC[C@]4(C)[C@H]3CC[C@]12C` [Glycolithocholic acid], for which the “Lipase (RFU)” value is 1103.978 RFU.

Take `O=c1c(-c2ccc(O)cc2)coc2cc(O[C@@H]3O[C@H](CO)[C@@H](O)[C@H](O)[C@H]3O)ccc12` [Daidzin]: the “Lipase (RFU)” value came to 828.0829 RFU.

Consider `Cc1cc(O)c2c(c1)C(=O)c1cc(O)cc(O[C@@H]3O[C@H](CO)[C@@H](O)[C@H](O)[C@H]3O)c1C2=O` [Emodin-1-O-β-D-glucopyranoside], for which the “Lipase (RFU)” value is given as 964.8621 RFU.

`CC(C)=CCC/C(C)=C/CC/C(C)=C/CC[C@]1(C)CCc2cc(O)c(C)c(C)c2O1` [γ-Tocotrienol]: the “Lipase (RFU)” value is 703.9438 RFU and 665.753 RFU.

For β-Alanine, the “Lipase (RFU)” value is 882.8696 RFU and 1205.931 RFU.

Regarding `CC1(C)CC[C@]2(C(=O)O)CC[C@]3(C)C(=CC[C@@H]4[C@@]5(C)CC[C@@H](O)C(C)(C)[C@@H]5CC[C@]43C)[C@@H]2C1` [3-Epioleanolic acid], the “Lipase (RFU)” value is 1064.911 RFU.

Consider `O=C(O)CC(O)(C(=O)O)C(O)C(=O)O` (stereo not drawn), for which the “Lipase (RFU)” value is reported as 1053.487 RFU.

As for `C[C@@]12C[C@H](c3ccoc3)O[C@@]13C[C@H](OC3=O)[C@H]1[C@H]2C[C@@H]2C[C@H]1C(=O)O2` [Diosbulbin B], the “Lipase (RFU)” value worked out at 951.5417 RFU.

For `CC(=O)OC(C)(C)/C=C/C(=O)[C@](C)(O)[C@H]1[C@H](O)C[C@@]2(C)[C@@H]3CC=C4[C@H](C[C@H](O)C(=O)C4(C)C)[C@]3(C)C(=O)C[C@]12C` [Cucurbitacin B], the “Lipase (RFU)” value is listed as 789.0588 RFU.

In the case of `COc1cc2c(cc1OC)[C@@H]1C(=O)c3ccc4c(c3O[C@@H]1CO2)C=CC(C)(C)O4` [Deguelin], the “Lipase (RFU)” value is given as 955.3932 RFU.

In the case of `CCCCCCCC/C=C\CCCCCCCC(=O)O[C@H]1CC[C@@]2(C)C(=CC[C@H]3[C@@H]4CC[C@H]([C@H](C)CCCC(C)C)[C@@]4(C)CC[C@@H]32)C1` [Cholesteryl oleate], the “Lipase (RFU)” value was 988.5488 RFU.

For Glycogen, the “Lipase (RFU)” value was determined as 745.3227 RFU.

As for `CC1=C(/C=C/C(C)=C/C=C/C(C)=C/C(=O)O)C(C)(C)CCC1=O` [all-trans-4-Oxoretinoic acid], the “Lipase (RFU)” value is given as 984.8749 RFU.

For the molecule Maltotriose, the “Lipase (RFU)” value is 917.8057 RFU and 1104.158 RFU.

On to `N[C@@H](CCCCNC(=O)CCCC[C@@H]1SC[C@@H]2NC(=O)N[C@@H]21)C(=O)O` [Biocytin], for which the “Lipase (RFU)” value came to 807.0879 RFU.

As for `CC(C)=CCC[C@@](C)(O)[C@H]1CC[C@]2(C)[C@@H]1[C@H](O)C[C@@H]1[C@@]3(C)CC[C@H](O)C(C)(C)[C@@H]3CC[C@]12C` [(20R)-Protopanaxadiol], the “Lipase (RFU)” value is given as 1067.282 RFU.

On to `CCCCCCCCC(=O)NCc1ccc(O)c(OC)c1` [Nonivamide], for which the “Lipase (RFU)” value was 911.9923 RFU and 1070.28 RFU.

Take `CCCCCCCCCCCCCCCC(=O)OC[C@H](COP(=O)([O-])OCC[N+](C)(C)C)OC(=O)CCCCCCCCCCCCCCC` [DPPC]: the “Lipase (RFU)” value is recorded as 959.6761 RFU.

Turning to `COc1ccc2c(c1)OC(O)C(=O)N2O` (stereo not drawn) [DIMBOA], the “Lipase (RFU)” value is reported as 910.6705 RFU.

Consider `CCN(Cc1cccc(S(=O)(=O)[O-])c1)c1ccc(C(=C2C=CC(=[N+](CC)Cc3cccc(S(=O)(=O)[O-])c3)C=C2)c2ccc(O)cc2S(=O)(=O)[O-])cc1.[Na+].[Na+]` [Fast Green FCF], for which the “Lipase (RFU)” value was 896.2144 RFU.

Regarding `C[n+]1cccc(C(N)=O)c1` [TRIA-662], the “Lipase (RFU)” value came to 1140.39 RFU.

For the molecule `C/C1=C2/[N-][C@H]([C@H](CC(N)=O)[C@@]2(C)CCC(=O)NC[C@H](C)OP(=O)([O-])O[C@H]2[C@@H](O)[C@@H](n3cnc4cc(C)c(C)cc43)O[C@@H]2CO)[C@]2(C)N=C(/C(C)=C3N=C(/C=C4N=C1[C@@H](CCC(N)=O)C\4(C)C)[C@@H](CCC(N)=O)[C@]\3(C)CC(N)=O)[C@@H](CCC(N)=O)[C@]2(C)CC(N)=O.[CH3-].[Co+3]` [Methylcobalamin], the “Lipase (RFU)” value was found to be 1187.639 RFU.

As for O-Nornuciferine, the “Lipase (RFU)” value was found to be 773.2053 RFU.

Regarding `OCCc1c[nH]c2ccc(O)cc12` [5-Hydroxytryptophol], the “Lipase (RFU)” value is 681.6533 RFU.

On to `O=C(O)C1CSSC1` [Asparagusic acid], for which the “Lipase (RFU)” value is reported as 934.8474 RFU.

Take `CC1=C(C)C(=O)C(CC[C@](C)(O)CCC[C@H](C)CCC[C@H](C)CCCC(C)C)=C(C)C1=O` [D-α-Tocopherylquinone]: the “Lipase (RFU)” value came to 598.2224 RFU.

Consider `CCCC=C1OC(=O)c2ccccc21` [3-Butylidenephthalide], for which the “Lipase (RFU)” value was 952.6722 RFU.

For the molecule Sorafenib (Tosylate), the “Lipase (RFU)” value came to 986.7553 RFU.

Consider `N[C@@H](Cc1ccc(O)c(Cl)c1)C(=O)O` [Compound 3-Chloro-L-tyrosine, 3-Chloro-L-tyrosine], for which the “Lipase (RFU)” value came to 1117.619 RFU.

On to `CC(C)=CCC[C@](C)(O[C@@H]1O[C@H](CO[C@@H]2OC[C@@H](O)[C@H](O)[C@H]2O)[C@@H](O)[C@H](O)[C@H]1O)[C@H]1CC[C@]2(C)[C@@H]1[C@H](O)C[C@@H]1[C@@]3(C)CC[C@H](O[C@@H]4O[C@H](CO)[C@@H](O)[C@H](O)[C@H]4O[C@@H]4O[C@H](CO)[C@@H](O)[C@H](O)[C@H]4O[C@@H]4OC[C@@H](O)[C@H](O)[C@H]4O)C(C)(C)[C@@H]3CC[C@]12C` [Notoginsenoside Fc], for which the “Lipase (RFU)” value worked out at 1131.911 RFU.

In the case of `C[N+](C)(C)CCOP(=O)([O-])OP(=O)([O-])OC[C@H]1O[C@@H](n2ccc(N)nc2=O)[C@H](O)[C@@H]1O.[Na+]` [Citicoline (sodium)], the “Lipase (RFU)” value came out at 965.9573 RFU.
